Data taken from ChEMBL document CHEMBL5715954, “Silencing c-Myc translation as a therapeutic strategy through targeting PI3Kδ and CK1ε in hematological malignancies” (Blood, 2017).

Key:
Set-up in all cases: scale not given: the % may be the effect or the level left
[1] = target: Cyclin-dependent kinase 5/CDK5 activator 1 (Homo sapiens) (UniProt Q00535+Q15078); assay: Inhibition of human CDK5/p25 assessed as enzyme activity at 1 uM using RB Protein as substrate preincubated for 20 mins followed by [gamma-33P]-ATP addition and measured after 120 mins by radiometric Hot-SpotSM Kinase assay relative to control; format: protein-complex assay
Chain of Cyclin-dependent kinase 5/CDK5 activator 1 (Homo sapiens) (Q00535 whole entry): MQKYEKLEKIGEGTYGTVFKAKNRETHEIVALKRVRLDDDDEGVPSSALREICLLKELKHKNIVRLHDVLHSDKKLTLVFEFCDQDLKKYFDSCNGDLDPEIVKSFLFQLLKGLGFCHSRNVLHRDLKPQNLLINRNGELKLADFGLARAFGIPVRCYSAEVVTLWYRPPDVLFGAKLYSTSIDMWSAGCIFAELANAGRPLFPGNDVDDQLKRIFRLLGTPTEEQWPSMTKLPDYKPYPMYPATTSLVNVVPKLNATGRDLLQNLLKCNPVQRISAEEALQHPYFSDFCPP
Chain of Cyclin-dependent kinase 5/CDK5 activator 1 (Homo sapiens) (Q15078 99-307 partner limits assumed): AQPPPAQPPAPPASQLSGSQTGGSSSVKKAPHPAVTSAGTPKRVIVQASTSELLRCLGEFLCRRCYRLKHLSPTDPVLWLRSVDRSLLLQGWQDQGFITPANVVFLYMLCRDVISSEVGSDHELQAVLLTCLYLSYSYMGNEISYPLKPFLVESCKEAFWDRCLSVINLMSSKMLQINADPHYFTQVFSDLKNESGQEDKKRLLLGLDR

[2] = target: T1, Lymphokine-activated killer T-cell-originated protein kinase (Homo sapiens) (UniProt Q96KB5); assay: Inhibition of human PBK assessed as enzyme activity at 1 uM using myelin basic protein as substrate preincubated for 20 mins followed by [gamma-33P]-ATP addition and measured after 120 mins by radiometric Hot-SpotSM Kinase assay relative to control
T1 sequence (whole entry): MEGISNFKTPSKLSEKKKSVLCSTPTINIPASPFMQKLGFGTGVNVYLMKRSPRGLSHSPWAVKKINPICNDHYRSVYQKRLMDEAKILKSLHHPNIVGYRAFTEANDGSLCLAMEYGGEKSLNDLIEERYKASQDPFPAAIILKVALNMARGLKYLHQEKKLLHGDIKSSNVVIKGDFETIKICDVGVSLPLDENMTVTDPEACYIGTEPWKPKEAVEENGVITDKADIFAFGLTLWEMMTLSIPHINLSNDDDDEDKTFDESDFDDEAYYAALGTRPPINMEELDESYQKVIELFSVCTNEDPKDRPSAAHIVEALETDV

[3] = target: Dual specificity mitogen-activated protein kinase kinase 2 (Homo sapiens) (UniProt P36507); assay: Inhibition of human MEK2 assessed as enzyme activity at 1 uM using ERK2 (K52R) as substrate preincubated for 20 mins followed by [gamma-33P]-ATP addition and measured after 120 mins by radiometric Hot-SpotSM Kinase assay relative to control
Chain of Dual specificity mitogen-activated protein kinase kinase 2 (Homo sapiens) (P36507 whole entry): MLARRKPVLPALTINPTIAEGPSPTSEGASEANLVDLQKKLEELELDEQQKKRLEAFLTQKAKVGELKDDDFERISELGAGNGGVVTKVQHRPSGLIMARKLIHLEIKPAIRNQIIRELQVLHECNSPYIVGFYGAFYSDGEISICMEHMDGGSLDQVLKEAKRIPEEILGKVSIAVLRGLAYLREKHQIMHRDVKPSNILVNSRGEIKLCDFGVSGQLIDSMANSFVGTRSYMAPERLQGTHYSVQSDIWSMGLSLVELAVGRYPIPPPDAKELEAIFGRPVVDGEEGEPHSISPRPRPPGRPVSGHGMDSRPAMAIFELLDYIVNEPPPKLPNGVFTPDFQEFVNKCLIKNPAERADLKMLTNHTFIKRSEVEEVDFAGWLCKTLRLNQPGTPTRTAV

[4] = target: T2, Non-receptor tyrosine-protein kinase TNK1 (Homo sapiens) (UniProt Q13470); assay: Inhibition of human TNK1 assessed as enzyme activity at 1 uM using poly[Glu:Tyr] (4:1) as substrate preincubated for 20 mins followed by [gamma-33P]-ATP addition and measured after 120 mins by radiometric Hot-SpotSM Kinase assay relative to control
T2 sequence (whole entry): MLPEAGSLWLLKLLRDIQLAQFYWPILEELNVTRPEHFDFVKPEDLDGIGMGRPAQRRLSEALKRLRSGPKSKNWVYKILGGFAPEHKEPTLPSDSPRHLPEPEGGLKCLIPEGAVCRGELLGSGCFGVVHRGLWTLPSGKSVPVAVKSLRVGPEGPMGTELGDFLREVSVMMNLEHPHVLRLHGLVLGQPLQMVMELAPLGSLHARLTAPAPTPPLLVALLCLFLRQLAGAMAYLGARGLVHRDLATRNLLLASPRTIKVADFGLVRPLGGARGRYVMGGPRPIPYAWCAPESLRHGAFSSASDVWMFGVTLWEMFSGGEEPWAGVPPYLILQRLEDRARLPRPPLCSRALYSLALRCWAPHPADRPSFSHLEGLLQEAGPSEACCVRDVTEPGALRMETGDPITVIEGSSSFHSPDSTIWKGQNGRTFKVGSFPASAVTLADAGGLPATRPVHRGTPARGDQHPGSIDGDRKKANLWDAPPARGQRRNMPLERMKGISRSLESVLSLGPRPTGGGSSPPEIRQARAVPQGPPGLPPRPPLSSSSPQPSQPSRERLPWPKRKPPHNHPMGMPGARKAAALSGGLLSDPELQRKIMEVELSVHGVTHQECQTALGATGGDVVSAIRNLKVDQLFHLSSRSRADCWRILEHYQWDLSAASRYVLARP

[5] = target: T3, Ephrin type-A receptor 6 (Homo sapiens) (UniProt Q9UF33); assay: Inhibition of human EPHA6 assessed as enzyme activity at 1 uM using poly[Glu:Tyr] (4:1) as substrate preincubated for 20 mins followed by [gamma-33P]-ATP addition and measured after 120 mins by radiometric Hot-SpotSM Kinase assay relative to control
T3 sequence (whole entry): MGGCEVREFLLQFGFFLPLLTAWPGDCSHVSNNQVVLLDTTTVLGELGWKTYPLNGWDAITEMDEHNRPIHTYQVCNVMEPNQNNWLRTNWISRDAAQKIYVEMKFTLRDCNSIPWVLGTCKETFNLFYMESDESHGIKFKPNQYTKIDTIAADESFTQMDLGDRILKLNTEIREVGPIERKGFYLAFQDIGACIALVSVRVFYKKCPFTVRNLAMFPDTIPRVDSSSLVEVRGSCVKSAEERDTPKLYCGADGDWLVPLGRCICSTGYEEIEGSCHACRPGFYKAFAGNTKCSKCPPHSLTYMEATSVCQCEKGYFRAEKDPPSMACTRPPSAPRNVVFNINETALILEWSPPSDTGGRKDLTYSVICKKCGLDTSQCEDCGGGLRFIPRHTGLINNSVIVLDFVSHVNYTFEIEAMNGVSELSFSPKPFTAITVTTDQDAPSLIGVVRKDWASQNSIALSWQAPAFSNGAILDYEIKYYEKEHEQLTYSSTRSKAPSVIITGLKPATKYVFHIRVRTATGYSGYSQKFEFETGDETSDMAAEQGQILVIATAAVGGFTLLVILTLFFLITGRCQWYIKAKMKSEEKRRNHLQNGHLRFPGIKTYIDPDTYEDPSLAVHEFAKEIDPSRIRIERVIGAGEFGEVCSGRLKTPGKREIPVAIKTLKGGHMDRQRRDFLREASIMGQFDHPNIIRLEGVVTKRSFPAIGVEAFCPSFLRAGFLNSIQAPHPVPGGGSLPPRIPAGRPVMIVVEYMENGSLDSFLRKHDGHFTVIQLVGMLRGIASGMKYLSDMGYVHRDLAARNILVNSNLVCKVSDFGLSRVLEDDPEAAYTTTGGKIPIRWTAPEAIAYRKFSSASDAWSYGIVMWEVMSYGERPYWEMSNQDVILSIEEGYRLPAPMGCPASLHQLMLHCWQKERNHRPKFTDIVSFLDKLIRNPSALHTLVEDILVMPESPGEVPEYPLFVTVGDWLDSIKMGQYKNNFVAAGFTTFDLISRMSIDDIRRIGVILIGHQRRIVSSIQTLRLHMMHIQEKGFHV

[6] = target: High affinity nerve growth factor receptor (Homo sapiens) (UniProt P04629); assay: Inhibition of human TRKA assessed as enzyme activity at 1 uM using poly[Glu:Tyr] (4:1) as substrate preincubated for 20 mins followed by [gamma-33P]-ATP addition and measured after 120 mins by radiometric Hot-SpotSM Kinase assay relative to control
Chain of High affinity nerve growth factor receptor (Homo sapiens) (P04629 33-796 limits assumed): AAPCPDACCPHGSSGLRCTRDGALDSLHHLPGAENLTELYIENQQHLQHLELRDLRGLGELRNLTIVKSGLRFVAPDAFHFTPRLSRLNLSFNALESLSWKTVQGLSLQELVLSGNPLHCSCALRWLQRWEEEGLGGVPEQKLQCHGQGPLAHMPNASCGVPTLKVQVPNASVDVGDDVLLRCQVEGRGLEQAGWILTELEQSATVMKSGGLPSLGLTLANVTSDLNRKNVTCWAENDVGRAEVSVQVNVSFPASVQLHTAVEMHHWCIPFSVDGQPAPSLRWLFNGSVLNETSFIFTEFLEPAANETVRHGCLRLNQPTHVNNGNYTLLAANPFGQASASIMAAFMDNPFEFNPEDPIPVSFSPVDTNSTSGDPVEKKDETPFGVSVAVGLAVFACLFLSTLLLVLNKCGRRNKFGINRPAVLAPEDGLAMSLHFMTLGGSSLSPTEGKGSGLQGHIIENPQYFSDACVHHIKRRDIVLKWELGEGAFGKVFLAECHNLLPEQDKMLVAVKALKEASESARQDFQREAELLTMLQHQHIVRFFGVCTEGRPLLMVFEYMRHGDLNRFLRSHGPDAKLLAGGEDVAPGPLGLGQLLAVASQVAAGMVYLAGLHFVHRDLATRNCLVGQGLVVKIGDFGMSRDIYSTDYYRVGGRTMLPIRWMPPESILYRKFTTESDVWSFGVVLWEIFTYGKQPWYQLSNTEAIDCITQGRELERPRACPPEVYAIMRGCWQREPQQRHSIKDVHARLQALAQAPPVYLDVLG

Compound | Activity [1] [%] | Activity [2] [%] | Activity [3] [%] | Activity [4] [%] | Activity [5] [%] | Activity [6] [%]
C[C@H](Nc1ncnc2nc[nH]c12)c1cc2cccc(Cl)c2c(=O)n1-c1ccccc1 | 92.7 | 102 | 90 | 87.5 | 86.9 | 87.3
CC[C@H](Nc1ncnc2[nH]cnc12)c1nc2cccc(F)c2c(=O)n1-c1ccccc1 | 99.8 | 105 | 91.5 | 86.3 | 87.7 | 91
CC(C)Oc1ccc(-c2nn([C@@H](C)c3oc4ccc(F)cc4c(=O)c3-c3cccc(F)c3)c3ncnc(N)c23)cc1F [UMBRALISIB] | 90.3 | 105 | 90.4 | 88.9 | 81.3 | 89
